Data set [1] in a line: Molar enthalpy of transition or fusion. Conditions: Crystal; DSC.
For data set [2] the following is noted: Crystal; DSC.

± gives the expanded uncertainty stated by the source.

Consider `Oc1c(Cl)cc(Cl)c2cccnc12` [5,7-dichloro-8-hydroxyquinoline], for which the “Molar enthalpy of transition or fusion” value in data set [1] is 9.51 ± 0.263 kcal/mol. Moreover, the Triple point temperature in data set [2] was found to be 452.15 ± 1.2 K.

On to `Oc1ccc(Cl)c2cccnc12` [5-chloro-8-hydroxyquinoline], for which, in data set [1], the “Molar enthalpy of transition or fusion” value worked out at 6.05 ± 0.227 kcal/mol. For the same compound, in data set [2], the Triple point temperature turned out to be 395.48 ± 1.2 K.

Source of the values: the NIST ThermoML archive (doi:10.1021/acs.jced.9b00028).
